Source: patent US20160304957A1, “TREATMENT AND MODULATION OF GENE EXPRESSION AND SKIN AGING” (DSM NUTRITIONAL PRODUCTS LTD., priority 2006, published 2016)

What was measured:
Experiment in all cases: QRT-PCR gene expression in HaCaT cells with or without UVA
Format in all cases: cell-based, human
RARγ = test system: RARγ
Description: (§1) HaCaT cells were obtained from Prof. Fusenig, German Cancer Research Centre, Heidelberg. […] The accuracy of cell counting was approximately 99%.
(§2) On day 3 of the experiment, cells were washed six times with Ca/Mg-free PBS containing 2% BSA, and then irradiated with light with a Hönle sun lamp Sol 500 (Dr. Hönle, Plannegg, Germany) at a dose of 270 kJ/m^2 in Ca/Mg-free PBS (2 hour exposure time at […]). The experimental schedule was chosen because the cells had optimal UVA sensitivity after 48 hours in culture. […] Confluent cultures were much less sensitive to irradiation.
(§3) After irradiation, the cells were supplied with fresh β-carotene-containing serum-free medium and kept in the incubator at 37° C., 5% CO2 until harvest of the samples. In experiments in which the half-life of ^1O2 was prolonged by D2O to enhance its effect, PBS was prepared in D2O, instead of in H2O, as it was done for the standard conditions described above. Cells were washed twice in D2O-PBS prior to irradiation in D2O-PBS. After irradiation, cells were maintained with fresh β-carotene-containing serum-free medium. Sham controls were treated in an identical manner, by placing them under the solar simulator but shielded from light.
(§4) Total RNA was isolated by using Trizol™ (Invitrogen, Basel, Switzerland) according to the instructions of the manufacturer. Random-primed cDNA was synthesized using the Superscript pre-amplification system for first strand cDNA synthesis (Invitrogen).
(§5) cDNA corresponding to 10 ng total RNA was used as template to quantify the relative RNA expression of the genes of interest by TaqMan® real time PCR.
(§6) The PCR analyses were carried out in triplicate and in a multiplex setup, using 18S rRNA as a calibrator gene. The rRNA primers were used at a final concentration of 50 nM, the probe at 100 nM. For quantification of the genes of interest, the primer concentrations were optimized for sensitivity of template detection. […] PCR reactions were carried out for 40 cycles of 95° C. for 15 seconds and 60° C. for 1 minute in an ABI7700 (Applied Biosystems, Rotkreuz, Switzerland). Regulation of gene expression was calculated as described in user bulletin #2 provided by the manufacturer. A threshold cycle (“CT”) is the first PCR cycle in which an amplification signal is detected. Expression levels are given as δCT values. The δCT value describes the level of gene expression as the average PCR cycle, in which the gene of interest was detected first (CT value), subtracted by the CT value of the calibrator gene 18S rRNA (CTgene of interest−CTcalibrating gene), 18S rRNA served as a measure for the amount of template in the reaction. Routinely, 18S rRNA was detected between PCR cycle 12 and 13 (SE=standard error) A low δCT corresponds to a high mRNA level.
(§7) HaCaT cells were pretreated for 2 days with 0.5, 1.5 or 3 μM β-carotene. The cells were irradiated with UVA (270 kJ/m^2) either in D2O-containing PBS or in H2O-containing PBS, to analyze ^1O2 inducibility of genes. Gene expression 5 hours after UVA irradiation was analyzed by QRT-PCR. Values are geometric means±standard error from three independent experiments. Upregulations greater than 1.5-fold are labelled in bold black, downregulations below 0.66-fold are bold grey.

[1] = test system: β-carotene-9′,10′-oxygenase
Description: as §1, §2, §3, §4, §5, §6, §7

RXRβ = test system: RXRβ
Description: as §1, §2, §3, §4, §5, §6, §7

RXRα = test system: RXRα
Description: as §1, §2, §3, §4, §5, §6, §7

CC1=C(/C=C/C(C)=C/C=C/C(C)=C/C=C/C=C(C)/C=C/C=C(C)/C=C/C2=C(C)CCCC2(C)C)C(C)(C)CCC1 [β-carotene, All-E-β-carotene]
basal or UVA-regulated expression level of RARγ (RARγ): no significant effect
RARγ fold induction (RARγ; D2O, UVA/βC 0.5 μM): 0.63 fold
RARγ fold induction (RARγ; D2O, UVA/βC 1.5 μM): 0.67 fold
RARγ fold induction (RARγ; D2O, UVA/βC 3 μM): 0.76 fold
RARγ fold induction (RARγ; D2O, βC 0.5 μM): 0.94 fold
RARγ fold induction (RARγ; D2O, βC 1.5 μM): 1.11 fold
RARγ fold induction (RARγ; D2O, βC 3 μM): 1.12 fold
RARγ fold induction (RARγ; H2O, UVA/βC 0.5 μM): 0.85 fold
RARγ fold induction (RARγ; H2O, UVA/βC 1.5 μM): 0.15 fold
RARγ fold induction (RARγ; H2O, UVA/βC 3 μM): 0.54 fold
RARγ fold induction (RARγ; H2O, βC 0.5 μM): 0.74 fold
RARγ fold induction (RARγ; H2O, βC 1.5 μM): 0.86 fold
RARγ fold induction (RARγ; H2O, βC 3 μM): 0.90 fold
βC-9′,10′-oxygenase fold induction ([1]; D2O, UVA/βC 0.5 μM): 1.43 fold
βC-9′,10′-oxygenase fold induction ([1]; D2O, UVA/βC 1.5 μM): 2.30 fold
βC-9′,10′-oxygenase fold induction ([1]; D2O, UVA/βC 3 μM): 2.19 fold
βC-9′,10′-oxygenase fold induction ([1]; D2O, βC 0.5 μM): 0.93 fold
βC-9′,10′-oxygenase fold induction ([1]; D2O, βC 1.5 μM): 1.19 fold
βC-9′,10′-oxygenase fold induction ([1]; D2O, βC 3 μM): 1.11 fold
βC-9′,10′-oxygenase fold induction ([1]; H2O, UVA/βC 0.5 μM): 0.75 fold
βC-9′,10′-oxygenase fold induction ([1]; H2O, UVA/βC 1.5 μM): 0.70 fold
βC-9′,10′-oxygenase fold induction ([1]; H2O, UVA/βC 3 μM): 0.99 fold
βC-9′,10′-oxygenase fold induction ([1]; H2O, βC 0.5 μM): 0.90 fold
βC-9′,10′-oxygenase fold induction ([1]; H2O, βC 1.5 μM): 0.85 fold
βC-9′,10′-oxygenase fold induction ([1]; H2O, βC 3 μM): 0.76 fold
β-carotene-9′,10′-oxygenase RNA level ([1]; β-carotene, UVA, D2O treatments): not significantly influenced
basal or UVA-regulated expression level of RXRβ (RXRβ): no significant effect
RXRβ fold induction (RXRβ; D2O, UVA/βC 0.5 μM): 1.23 fold
RXRβ fold induction (RXRβ; D2O, UVA/βC 1.5 μM): 1.09 fold
RXRβ fold induction (RXRβ; D2O, UVA/βC 3 μM): 0.76 fold
RXRβ fold induction (RXRβ; D2O, βC 0.5 μM): 1.32 fold
RXRβ fold induction (RXRβ; D2O, βC 1.5 μM): 1.17 fold
RXRβ fold induction (RXRβ; D2O, βC 3 μM): 1.61 fold
RXRβ fold induction (RXRβ; H2O, UVA/βC 0.5 μM): 0.93 fold
RXRβ fold induction (RXRβ; H2O, UVA/βC 1.5 μM): 0.71 fold
RXRβ fold induction (RXRβ; H2O, UVA/βC 3 μM): 1.04 fold
RXRβ fold induction (RXRβ; H2O, βC 0.5 μM): 0.67 fold
RXRβ fold induction (RXRβ; H2O, βC 1.5 μM): 0.99 fold
RXRβ fold induction (RXRβ; H2O, βC 3 μM): 0.99 fold
basal or UVA-regulated expression level of RXRα (RXRα): no significant effect
RXRα fold induction (RXRα; D2O, UVA/βC 0.5 μM): 0.68 fold
RXRα fold induction (RXRα; D2O, UVA/βC 1.5 μM): 0.31 fold
RXRα fold induction (RXRα; D2O, UVA/βC 3 μM): 0.38 fold
RXRα fold induction (RXRα; D2O, βC 0.5 μM): 1.25 fold
RXRα fold induction (RXRα; D2O, βC 1.5 μM): 0.82 fold
RXRα fold induction (RXRα; D2O, βC 3 μM): 1.06 fold
RXRα fold induction (RXRα; H2O, UVA/βC 0.5 μM): 0.96 fold
RXRα fold induction (RXRα; H2O, UVA/βC 1.5 μM): 0.27 fold
RXRα fold induction (RXRα; H2O, UVA/βC 3 μM): 0.58 fold
RXRα fold induction (RXRα; H2O, βC 0.5 μM): 0.89 fold
RXRα fold induction (RXRα; H2O, βC 1.5 μM): 0.98 fold
RXRα fold induction (RXRα; H2O, βC 3 μM): 1.13 fold
